Assay results from ChEMBL document CHEMBL1144655, “Potent and selective isophthalamide S2 hydroxyethylamine inhibitors of BACE1” (Bioorg Med Chem Lett, 2007).

Tests used:
Beta-secretase 1 = Beta-secretase 1 (Homo sapiens, UniProt P56817); experiment: Inhibition of BACE1
Cathepsin D = Cathepsin D (Homo sapiens, UniProt P07339); experiment: Inhibition of cathepsin D
Cathepsin D, sequence (P07339 65-162 limits assumed): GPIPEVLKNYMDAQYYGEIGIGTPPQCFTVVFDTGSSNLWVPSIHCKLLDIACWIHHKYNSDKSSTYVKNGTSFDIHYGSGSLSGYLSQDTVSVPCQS
Cathepsin D, sequence (P07339 169-412 limits assumed): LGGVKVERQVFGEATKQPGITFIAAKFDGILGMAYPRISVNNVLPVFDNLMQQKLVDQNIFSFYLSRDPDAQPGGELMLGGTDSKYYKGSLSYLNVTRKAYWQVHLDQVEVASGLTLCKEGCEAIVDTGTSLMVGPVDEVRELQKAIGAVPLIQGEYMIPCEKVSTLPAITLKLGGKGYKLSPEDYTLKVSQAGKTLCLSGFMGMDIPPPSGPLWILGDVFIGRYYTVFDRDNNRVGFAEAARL

Beta-secretase 1, sequence (P56817 whole entry): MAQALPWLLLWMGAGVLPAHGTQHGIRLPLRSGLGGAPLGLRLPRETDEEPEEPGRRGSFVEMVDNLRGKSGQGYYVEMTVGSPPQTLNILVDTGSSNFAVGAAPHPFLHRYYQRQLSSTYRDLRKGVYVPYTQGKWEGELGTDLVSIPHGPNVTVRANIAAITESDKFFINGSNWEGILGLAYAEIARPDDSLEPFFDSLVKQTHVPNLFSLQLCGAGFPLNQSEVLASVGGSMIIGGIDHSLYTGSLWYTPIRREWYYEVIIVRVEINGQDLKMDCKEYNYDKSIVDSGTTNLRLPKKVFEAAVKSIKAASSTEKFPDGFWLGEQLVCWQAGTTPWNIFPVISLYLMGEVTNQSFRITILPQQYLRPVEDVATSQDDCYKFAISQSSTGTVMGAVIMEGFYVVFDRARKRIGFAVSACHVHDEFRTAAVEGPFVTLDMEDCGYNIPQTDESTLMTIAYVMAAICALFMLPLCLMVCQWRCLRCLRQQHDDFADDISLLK

**Q.** Which IC50 (Beta-secretase 1) does the source give for `CCCN(CCC)C(=O)c1cc(C(N)=O)cc(C(=O)N[C@@H](Cc2ccc(O)cc2)[C@H](O)CNCc2cccc(OC)c2)c1` here?
**A.** Its IC50 is 300 nM.

**Q.** What about the IC50 (Cathepsin D) of the same molecule?
**A.** Its IC50 is > 20000 nM.

**Q.** For `CCCN(CCC)C(=O)c1cc(C(=O)N[C@@H](Cc2ccccc2)[C@H](O)CNCc2cccc(OC)c2)cc(C(=O)N(C)C)c1`, which IC50 (Beta-secretase 1) is on record?
**A.** The IC50 was 70 nM.

**Q.** And the IC50 (Cathepsin D)?
**A.** Its IC50 is 3800 nM.

**Q.** How did the IC50 (Beta-secretase 1) turn out when `CCCN(CCC)C(=O)c1cc(CC#N)cc(C(=O)N[C@@H](Cc2ccccc2)[C@H](O)CNCc2cccc(OC)c2)c1` was run?
**A.** Its IC50 is 360 nM.

**Q.** And the IC50 (Cathepsin D)?
**A.** The IC50 was 570 nM.

**Q.** `CCCNC(=O)c1cc(C#N)cc(C(=O)N[C@@H](Cc2ccccc2)[C@H](O)CNCc2cccc(OC)c2)c1` was tested. Which IC50 (Beta-secretase 1) did it give?
**A.** The IC50 was 770 nM.

**Q.** What about the IC50 (Cathepsin D) of the same molecule?
**A.** Its IC50 is > 20000 nM.

**Q.** For `CCCN(CCC)C(=O)c1cc(C(N)=O)cc(C(=O)N[C@@H](Cc2cc(F)cc(F)c2)[C@H](O)CNCc2cccc(CC)c2)c1`, which IC50 (Beta-secretase 1) is on record?
**A.** The IC50 was 5 nM.

**Q.** And the IC50 (Cathepsin D)?
**A.** The IC50 was 1600 nM.

**Q.** `CCCN(CCC)C(=O)c1cc(C#N)cc(C(=O)N[C@@H](Cc2ccccc2)[C@H](O)CNCc2cccc(OC)c2)c1` was tested. Which IC50 (Beta-secretase 1) did it give?
**A.** The IC50 was 90 nM.

**Q.** What about the IC50 (Cathepsin D) of the same molecule?
**A.** Its IC50 is 660 nM.

**Q.** How did the IC50 (Beta-secretase 1) turn out when `CCCN(CCC)C(=O)c1cc(C(=O)N[C@@H](Cc2ccccc2)[C@H](O)CNCc2cccc(OC)c2)cc(C(=O)OCC)c1` was run?
**A.** The IC50 was 132 nM.

**Q.** What about the IC50 (Cathepsin D) of the same molecule?
**A.** Its IC50 is 866 nM.

**Q.** How did the IC50 (Beta-secretase 1) turn out when `CCCN(CCC)C(=O)c1cc(C)cc(C(=O)N[C@@H](Cc2ccccc2)[C@H](O)CNCc2cccc(OC)c2)c1` was run?
**A.** The IC50 was 100 nM.

**Q.** What about the IC50 (Cathepsin D) of the same molecule?
**A.** Its IC50 is 450 nM.

**Q.** With `CCCN(CCC)C(=O)c1cc(C(N)=O)cc(C(=O)N[C@@H](Cc2cc(F)cc(F)c2)[C@H](O)CNCc2cccc(OC)c2)c1` as the molecule, how does the IC50 (Cathepsin D) read?
**A.** Its IC50 is 2400 nM.

**Q.** `CCCN(CCC)C(=O)c1cc(C(=O)O)cc(C(=O)N[C@@H](Cc2ccccc2)[C@H](O)CNCc2cccc(OC)c2)c1` was tested. Which IC50 (Beta-secretase 1) did it give?
**A.** The IC50 was 30 nM.

**Q.** And the IC50 (Cathepsin D)?
**A.** Its IC50 is 3600 nM.

**Q.** What does the source list for `CCCN(CCC)C(=O)c1cc(C(=O)N[C@@H](Cc2ccccc2)[C@H](O)CNCc2cccc(OC)c2)cc(C(=O)N(CCC)CCC)c1`?
**A.** IC50 (Beta-secretase 1): 250 nM; IC50 (Cathepsin D): 3600 nM

**Q.** For `CCCNC(=O)c1cc(C(N)=O)cc(C(=O)N[C@@H](Cc2ccccc2)[C@H](O)CNCc2cccc(OC)c2)c1`, which IC50 (Beta-secretase 1) is on record?
**A.** The IC50 was 1900 nM.

**Q.** And the IC50 (Cathepsin D)?
**A.** Its IC50 is > 20000 nM.

**Q.** What does the source list for `CCCN(CCC)C(=O)c1cc(C)cc(C(=O)N[C@@H](Cc2cc(F)cc(F)c2)[C@H](O)CNCc2cccc(CC)c2)c1`?
**A.** IC50 (Beta-secretase 1): 2 nM; IC50 (Cathepsin D): 150 nM

**Q.** Which IC50 (Beta-secretase 1) does the source give for `CCCN(CCC)C(=O)c1cc(C(N)=O)cc(C(=O)N[C@@H](Cc2ccccc2)[C@H](O)CNCc2cccc(OC)c2)c1` here?
**A.** The IC50 was 100 nM.

**Q.** And the IC50 (Cathepsin D)?
**A.** Its IC50 is 2800 nM.
